Experimental data: paper PMC6656724 (Communications Biology, 2019)
Converted amounts (≈) assume the structure as drawn. Read-outs that look alike come from different tables or passages of the source.

Tests used:
[1] = Kinetic solubility in PBS, pH 7.4 (2% DMSO); assay type: physicochemical; conditions: PBS with 2% DMSO, pH 7.4, aqueous buffer, kinetic from dmso stock, PBS, pH 7.4 (2% DMSO)
[2] = Stability in mouse hepatic microsomes; conditions: for half-life at 1 µM: mouse, microsomes
Experimental: 3.6.3 Compound stability in mouse hepatic microsomes and rat hepatocytes
A microsomal stability assay was performed as described in the BioFocus Standard
Operating Procedure ADME-SOP-83, using pooled hepatic mouse
Test and control compounds (midazolam,
dextromethorphan), were prepared in DMSO and incubated at an initial concentration
in the presence of the cofactor, NADPH (1 mM). Aliquots were removed at 0, 5, 10,
20 and 40 minutes for termination of reactions and compound extraction with ACN
containing an analytical internal standard. Samples were centrifuged and the
supernatant fractions analysed for parent compound by mass spectrometry (LC-
MS/MS). The amount of compound remaining (expressed as %) was determined from
the MS response in each sample relative to that in the T = 0 samples (normalised for
internal standard). Ln plots of the % remaining were used to determine the half-life
the slope of the Ln % remaining vs time curve. The in vitro intrinsic clearance Clint

PfKMO = target: T1, PfKMO (Pseudomonas fluorescens, UniProt Q84HF5, C252S/C461S); experiment: biochemical; conditions: substrates of PfKMO; read-out: Km
T1 construct: made in house; host or cells: E. coli BL21 (DE3)
T1 sequence (Q84HF5 whole entry C252S/C461S): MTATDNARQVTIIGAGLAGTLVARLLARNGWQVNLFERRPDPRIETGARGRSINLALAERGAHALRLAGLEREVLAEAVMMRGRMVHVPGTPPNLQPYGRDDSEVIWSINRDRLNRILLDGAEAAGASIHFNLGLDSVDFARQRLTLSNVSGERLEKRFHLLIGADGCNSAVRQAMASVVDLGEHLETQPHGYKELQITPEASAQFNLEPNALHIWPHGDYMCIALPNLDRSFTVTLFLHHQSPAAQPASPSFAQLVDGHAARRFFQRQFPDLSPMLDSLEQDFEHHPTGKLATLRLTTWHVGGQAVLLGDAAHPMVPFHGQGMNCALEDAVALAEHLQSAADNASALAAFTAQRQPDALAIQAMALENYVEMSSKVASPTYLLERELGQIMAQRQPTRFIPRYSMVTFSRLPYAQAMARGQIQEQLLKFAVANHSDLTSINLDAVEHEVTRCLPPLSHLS
Experimental: saturating concentrations of the L-KYN and NADPH substrates. Data are plotted […]
consumption of NADPH at 340 nm upon addition of enzyme via a Cary 50 UV-Vis spectrophotometer (Agilent Technologies). Rates were determined from linear regression fits to the initial linear portion of the curves. All measurements were performed in triplicate. The IC50 values for inhibitors were obtained by plotting the percentage inhibition versus the inhibitor concentration and fitting to the Morrison equation16 (equation 1) using Origin 9.0 Software (OriginLab, Northampton, MA).
E + I + K!"" − E + I + K!"" ! − 4[E][I] where v0 is the enzyme activity without inhibitor, vi is the enzyme activity with ligand concentration [I], [E] is the enzyme concentration, [I] is the inhibitor concentration, K!"" is the apparent inhibition constant and IC = K!"" + [!] . If K!"" ≫ [!], IC ≈ […]
where Ki is the inhibition constant, [S] is the substrate concentration used in the assay and Km is the Michaelis-Menten constant17. […]
between Ki and Ki apparent values, as the conditions for measuring IC50 are different, Ki values can be used to compare with other reported KMO inhibitors.
Steady-state kinetic parameters for PfKMO were calculated by measuring initial rates […]
the observed rate of turnover (v) versus the varied substrate concentration were fitted to equation 2 using Origin 9.0 Software (OriginLab, Northampton, MA).
A B + K!! B + K!! A + K!!K!! where v is the initial rate of activity, Vmax is the maximum velocitie of the reaction, [A] and [B] are the substrate concentration, K!! and K!! are the Michaelis-Menten constant for different substrate and K!! is the inhibition (binding) constant of substrate A to the free enzyme while forming transitory complexes.18
Product inhibition studies were carried out by measuring reaction rates at varying […]
one substrate and varying concentrations of the other substrate. Inhibition studies with target compounds were carried out by measuring reaction rates at varying inhibitor concentrations at saturating concentrations of one substrate and varying concentrations of the other substrate. […]
were used to distinguish between different types of inhibition. The data were fitted to a straight line defined by the Lineweaver-Burke equation (equation 4), with the y intercept providing 1/Vmax and the x intercept giving -1/Km. […]

[3] = Half-life Mean, mouse hepatic microsomes
[4] = Half-life n=1, mouse hepatic microsomes
[5] = Half-life n=2, mouse hepatic microsomes

Row | SMILES | solubility at 2 h ([1]; read-out: Solubility Mean) [µM] | solubility at 2 h ([1]; read-out: Solubility n=1) [µM] | solubility at 2 h ([1]; read-out: Solubility n=2) [µM] | Mean intrinsic clearance ([2]; mouse hepatic microsomes) | half-life at 1 µM [2, 3] [min] | half-life at 1 µM [2, 4] [min] | half-life at 1 µM [2, 5] [min] | Km (PfKMO) [µM]
1 | COC(=O)[C@H]1[C@H]2C[C@@H]3c4[nH]c5cc(OC)ccc5c4CCN3C[C@H]2C[C@@H](OC(=O)c2cc(OC)c(OC)c(OC)c2)[C@@H]1OC [Reserpine, reference compound] | 9 (≈ 5.48 µg/mL) | 9 (≈ 5.48 µg/mL) | 9 (≈ 5.48 µg/mL) |  |  |  |  | 
2 | COc1ccc2c(c1)[C@]13CCCC[C@@H]1[C@H](C2)N(C)CC3 [Dextromethorphan, reference compound] |  |  |  | 97 µL/min/mg microsome protein | 29 | 28 | 29 | 
3 | NC(=O)C1=CN([C@@H]2O[C@H](COP(=O)(O)OP(=O)(O)OC[C@H]3O[C@@H](n4cnc5c(N)ncnc54)[C@H](OP(=O)(O)O)[C@@H]3O)[C@@H](O)[C@H]2O)C=CC1 [NADPH, reference compound] |  |  |  |  |  |  |  | 16.9 ± 1.5
4 | Cc1ncc2n1-c1ccc(Cl)cc1C(c1ccccc1F)=NC2 [Midazolam, reference compound] |  |  |  | > 554 µL/min/mg microsome protein | < 5 | < 5 | < 5 | 
